Test results as given in patent US10196357B2, “Biaryl compositions and methods for modulating a kinase cascade” (Athenex, Inc., priority 2007, dated 2019).
“And” between values parts separate entries of the source, which are not always exact repeats. Equal entries are not always repeated. Where two headings read alike, the source gives them in different places.

Assays:
[1] = brain exposure after oral administration; assay type: in vivo, male CD-1 mice; details: for Cmax / Tmax: Brain
Experimental: Plasma concentrations were measured in mice after oral administration. All doses were formulated in purified water. Four groups of male CD-1 mice were dosed after an overnight fast and fed 4 hours post-dose. Dosing was as follows:
Protein was precipitated with 0.25 mL acetonitrile for plasma, 0.25 mL for brain. After centrifugation, supernatant was directly injected into an LC/MS system. The limit of quantitation was 1 ng/mL using a 50 μL aliquot for plasma and a 50 μL, aliquot for brain. The standard curve was 1 to 1,000 ng/mL for both plasma and brain. HPLC conditions were as follows:
HPLC System: Shimadzu SCL-10 System
• Analytical Column: Aquasil C18 5 μm 100×2 mm column. • Column Temperature: Ambient temperature • Autosampler Temperature: Ambient temperature • Mobile Phase A) 10 mM Ammonium formate in water (pH 4). • B) Acetonitrile. • Flow Rate: 0.6 mL/min • Injection Volume: 2 μL • Gradient:
• Mass Spectrometry Conditions were as follows: • Instrument: ABI Sciex API 4000 • Mode: ESI+ • Experiment: MRM (multiple reaction monitoring) • Transitions: KX2-391: m/z 432.4→114.2 (Rt=3.11 minute) • KX2-361: m/z 406.1→253.2 (Rt=3.33 minute)

SKOV-3 (Ovarian) = assay: growth inhibition (BrdU), SKOV-3; assay type: cell-based, Human; details: Homo sapiens, SK-OV-3, SKOV-3, BrdU, T=72
Source text: Growth Inhibition. […] T1 values≤T0 values were designated as T, cytotoxicity.

isolated Src = isolated Src (Homo sapiens, UniProt P12931); assay: titration against isolated Src; assay type: biochemical; details: titration data
Pyk2(h) = Pyk2(h) (Homo sapiens, UniProt Q14289); assay: isolated kinase activity, Pyk2; assay type: biochemical; details: compound @ 10 μM
Source text: (§1) Table 8 illustrates percent activity of isolated kinases in the presence of the AstraZeneca ATP-competitive inhibitor (KX2-328, AZ-28) or KX2-391 relative to control (untreated) isolated kinases.

FGFR2(h) = FGFR2(h) (Homo sapiens, UniProt P21802); assay: isolated kinase activity, FGFR2; assay type: biochemical; details: compound @ 10 μM
Source text: as §1

[2] = male, CD-1, mouse, single oral dose 10 mg/kg
[3] = male, CD-1, mouse, single oral dose 50 mg/kg

Sequence of Pyk2(h) (Q14289 whole entry): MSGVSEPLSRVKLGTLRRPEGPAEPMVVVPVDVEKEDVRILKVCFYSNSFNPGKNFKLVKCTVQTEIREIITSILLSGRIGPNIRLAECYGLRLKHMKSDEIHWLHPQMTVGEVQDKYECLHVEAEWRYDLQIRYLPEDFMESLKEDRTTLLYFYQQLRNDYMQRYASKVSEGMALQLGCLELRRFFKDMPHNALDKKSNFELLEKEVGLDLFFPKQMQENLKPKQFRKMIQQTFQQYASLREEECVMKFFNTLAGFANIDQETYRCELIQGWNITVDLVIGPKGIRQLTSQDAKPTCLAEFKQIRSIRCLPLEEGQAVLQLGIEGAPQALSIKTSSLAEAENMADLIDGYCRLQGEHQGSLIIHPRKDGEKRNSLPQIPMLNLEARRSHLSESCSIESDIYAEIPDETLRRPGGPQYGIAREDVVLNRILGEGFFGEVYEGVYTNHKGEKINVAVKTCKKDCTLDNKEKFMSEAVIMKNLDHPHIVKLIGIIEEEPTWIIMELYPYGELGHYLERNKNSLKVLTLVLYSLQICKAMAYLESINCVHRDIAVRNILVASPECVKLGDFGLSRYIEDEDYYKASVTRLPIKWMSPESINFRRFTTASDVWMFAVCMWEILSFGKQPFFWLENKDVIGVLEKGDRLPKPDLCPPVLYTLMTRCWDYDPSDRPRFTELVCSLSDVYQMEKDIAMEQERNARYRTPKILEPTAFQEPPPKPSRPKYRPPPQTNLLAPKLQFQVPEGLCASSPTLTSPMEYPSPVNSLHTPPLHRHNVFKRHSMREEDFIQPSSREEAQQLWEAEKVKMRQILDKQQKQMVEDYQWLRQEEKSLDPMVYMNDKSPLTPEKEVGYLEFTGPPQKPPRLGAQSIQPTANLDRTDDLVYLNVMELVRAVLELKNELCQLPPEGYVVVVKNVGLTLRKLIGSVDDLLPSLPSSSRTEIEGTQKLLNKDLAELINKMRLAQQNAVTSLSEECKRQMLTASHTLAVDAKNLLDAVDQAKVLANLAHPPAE
Sequence of FGFR2(h) (P21802 22-821): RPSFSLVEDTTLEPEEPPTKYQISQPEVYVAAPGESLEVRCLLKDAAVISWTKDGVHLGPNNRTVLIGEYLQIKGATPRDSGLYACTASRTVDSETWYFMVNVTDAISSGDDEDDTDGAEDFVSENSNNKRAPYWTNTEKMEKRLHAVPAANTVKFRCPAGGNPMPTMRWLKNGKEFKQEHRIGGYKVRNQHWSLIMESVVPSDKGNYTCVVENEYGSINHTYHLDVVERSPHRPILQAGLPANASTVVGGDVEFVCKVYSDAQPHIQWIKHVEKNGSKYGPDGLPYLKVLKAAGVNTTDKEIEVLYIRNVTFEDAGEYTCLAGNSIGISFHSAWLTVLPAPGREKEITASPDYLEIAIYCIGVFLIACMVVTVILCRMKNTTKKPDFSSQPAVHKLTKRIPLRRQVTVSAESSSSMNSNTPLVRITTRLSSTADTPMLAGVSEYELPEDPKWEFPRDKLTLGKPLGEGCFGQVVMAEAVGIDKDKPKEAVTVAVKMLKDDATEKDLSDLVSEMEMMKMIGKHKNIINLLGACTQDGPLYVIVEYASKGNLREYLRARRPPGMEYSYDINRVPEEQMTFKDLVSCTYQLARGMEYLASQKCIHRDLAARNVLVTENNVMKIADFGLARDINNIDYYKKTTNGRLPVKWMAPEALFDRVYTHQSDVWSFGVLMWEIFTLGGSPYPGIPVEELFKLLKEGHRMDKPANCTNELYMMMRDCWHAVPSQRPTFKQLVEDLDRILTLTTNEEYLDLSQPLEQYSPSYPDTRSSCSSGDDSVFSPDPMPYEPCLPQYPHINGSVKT
Sequence of isolated Src (P12931 whole entry): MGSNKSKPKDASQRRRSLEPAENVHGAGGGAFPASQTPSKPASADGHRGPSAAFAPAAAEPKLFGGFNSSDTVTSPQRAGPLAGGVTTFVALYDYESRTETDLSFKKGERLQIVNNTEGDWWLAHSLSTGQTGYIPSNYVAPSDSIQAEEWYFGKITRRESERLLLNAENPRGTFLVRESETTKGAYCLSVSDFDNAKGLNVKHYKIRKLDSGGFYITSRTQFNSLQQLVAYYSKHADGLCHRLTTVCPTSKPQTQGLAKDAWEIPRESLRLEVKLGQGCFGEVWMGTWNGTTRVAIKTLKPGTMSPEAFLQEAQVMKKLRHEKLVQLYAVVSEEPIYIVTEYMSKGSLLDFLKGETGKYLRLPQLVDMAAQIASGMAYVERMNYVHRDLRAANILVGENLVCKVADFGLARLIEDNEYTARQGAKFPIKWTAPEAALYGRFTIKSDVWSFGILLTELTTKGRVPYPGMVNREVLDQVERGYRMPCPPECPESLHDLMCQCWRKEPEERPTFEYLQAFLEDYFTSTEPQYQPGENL

O=C(Cc1ccc(-c2ccc(OCCN3CCOCC3)cc2)cn1)NCc1ccccc1 [KX2-391]
concentration at 5 h ([1]; male, CD-1, mouse, brain, po, 10 mg/kg, single PO dose 10 mg/kg (Group 1), 5 hr, read-out: Brain Concentrations, Group A, B, C): 67.7 ng/g
concentration at 5 h ([1]; male, CD-1, mouse, brain, po, 10 mg/kg, single PO dose 10 mg/kg (Group 1), 5 hr, read-out: Brain Concentrations, Mean): 71.4 ng/g
concentration at 0 hr ([1]; male, CD-1, mouse, brain, po, 50 mg/kg, Male CD-1 mice, single PO dose 50 mg/kg (Group 4), 0 hr, Mean, read-out: KX2-391 Brain Concentrations, Mean): 0 ng/g
concentration at 0.5 hr ([1]; male, CD-1, mouse, brain, po, 50 mg/kg, Male CD-1 mice, single PO dose 50 mg/kg (Group 4), 0.5 hr, Group A, read-out: KX2-391 Brain Concentrations, Group A): 960 ng/g
concentration at 0.5 hr ([1]; male, CD-1, mouse, brain, po, 50 mg/kg, Male CD-1 mice, single PO dose 50 mg/kg (Group 4), 0.5 hr, Group B, read-out: KX2-391 Brain Concentrations, Group B): 2120 ng/g
concentration at 0.5 hr ([1]; male, CD-1, mouse, brain, po, 50 mg/kg, Male CD-1 mice, single PO dose 50 mg/kg (Group 4), 0.5 hr, Group C, read-out: KX2-391 Brain Concentrations, Group C): 1050 ng/g
concentration at 0.5 hr ([1]; male, CD-1, mouse, brain, po, 50 mg/kg, Male CD-1 mice, single PO dose 50 mg/kg (Group 4), 0.5 hr, Mean, read-out: KX2-391 Brain Concentrations, Mean): 1380 ng/g
concentration at 1 hr ([1]; male, CD-1, mouse, brain, po, 50 mg/kg, Male CD-1 mice, single PO dose 50 mg/kg (Group 4), 1 hr, Group A, read-out: KX2-391 Brain Concentrations, Group A): 851 ng/g
concentration at 1 hr ([1]; male, CD-1, mouse, brain, po, 50 mg/kg, Male CD-1 mice, single PO dose 50 mg/kg (Group 4), 1 hr, Group B, read-out: KX2-391 Brain Concentrations, Group B): 1890 ng/g
concentration at 1 hr ([1]; male, CD-1, mouse, brain, po, 50 mg/kg, Male CD-1 mice, single PO dose 50 mg/kg (Group 4), 1 hr, Group C, read-out: KX2-391 Brain Concentrations, Group C): 549 ng/g
concentration at 1 hr ([1]; male, CD-1, mouse, brain, po, 50 mg/kg, Male CD-1 mice, single PO dose 50 mg/kg (Group 4), 1 hr, Mean, read-out: KX2-391 Brain Concentrations, Mean): 1100 ng/g
concentration at 2 hr ([1]; male, CD-1, mouse, brain, po, 50 mg/kg, Male CD-1 mice, single PO dose 50 mg/kg (Group 4), 2 hr, Group A, read-out: KX2-391 Brain Concentrations, Group A): 414 ng/g
concentration at 2 hr ([1]; male, CD-1, mouse, brain, po, 50 mg/kg, Male CD-1 mice, single PO dose 50 mg/kg (Group 4), 2 hr, Group B, read-out: KX2-391 Brain Concentrations, Group B): 986 ng/g
concentration at 2 hr ([1]; male, CD-1, mouse, brain, po, 50 mg/kg, Male CD-1 mice, single PO dose 50 mg/kg (Group 4), 2 hr, Group C, read-out: KX2-391 Brain Concentrations, Group C): 874 ng/g
concentration at 2 hr ([1]; male, CD-1, mouse, brain, po, 50 mg/kg, Male CD-1 mice, single PO dose 50 mg/kg (Group 4), 2 hr, Mean, read-out: KX2-391 Brain Concentrations, Mean): 758 ng/g
concentration at 5 hr ([1]; male, CD-1, mouse, brain, po, 50 mg/kg, Male CD-1 mice, single PO dose 50 mg/kg (Group 4), 5 hr, Group A, read-out: KX2-391 Brain Concentrations, Group A): 122 ng/g
concentration at 5 hr ([1]; male, CD-1, mouse, brain, po, 50 mg/kg, Male CD-1 mice, single PO dose 50 mg/kg (Group 4), 5 hr, Group B, read-out: KX2-391 Brain Concentrations, Group B): 260 ng/g
concentration at 5 hr ([1]; male, CD-1, mouse, brain, po, 50 mg/kg, Male CD-1 mice, single PO dose 50 mg/kg (Group 4), 5 hr, Group C, read-out: KX2-391 Brain Concentrations, Group C): 239 ng/g
concentration at 5 hr ([1]; male, CD-1, mouse, brain, po, 50 mg/kg, Male CD-1 mice, single PO dose 50 mg/kg (Group 4), 5 hr, Mean, read-out: KX2-391 Brain Concentrations, Mean): 207 ng/g
concentration at 0.5 h ([1]; male, CD-1, mouse, brain, po, 50 mg/kg, single PO dose 50 mg/kg (Group 2), 0.5 hr, read-out: Brain Concentrations, Group A, B, C): 2800 ng/g
concentration at 0.5 h ([1]; male, CD-1, mouse, brain, po, 50 mg/kg, single PO dose 50 mg/kg (Group 2), 0.5 hr, read-out: Brain Concentrations, Mean): 3690 ng/g
concentration at 1 h ([1]; male, CD-1, mouse, brain, po, 50 mg/kg, single PO dose 50 mg/kg (Group 2), 1 hr, read-out: Brain Concentrations, Group A, B, C): 946 ng/g
concentration at 1 h ([1]; male, CD-1, mouse, brain, po, 50 mg/kg, single PO dose 50 mg/kg (Group 2), 1 hr, read-out: Brain Concentrations, Mean): 788 ng/g
concentration at 2 h ([1]; male, CD-1, mouse, brain, po, 50 mg/kg, single PO dose 50 mg/kg (Group 2), 2 hr, read-out: Brain Concentrations, Group A, B, C): 613 ng/g
concentration at 2 h ([1]; male, CD-1, mouse, brain, po, 50 mg/kg, single PO dose 50 mg/kg (Group 2), 2 hr, read-out: Brain Concentrations, Mean): 610 ng/g
concentration at 5 h ([1]; male, CD-1, mouse, brain, po, 50 mg/kg, single PO dose 50 mg/kg (Group 2), 5 hr, read-out: Brain Concentrations, Mean): 370 ng/g
Cmax [1, 2]: 398 ng/g
Tmax [1, 2]: 30 min
Cmax [1, 3]: 3690 ng/g
Tmax [1, 3]: 30 min
Brain Concentrations, Group A, B, C ([1]; single PO dose 10 mg/kg (Group 1), 0.5 hr, 10 mg/kg): 509.00 ng/g and 286.70 ng/g
Brain Concentrations, Group A, B, C ([1]; single PO dose 10 mg/kg (Group 1), 2 hr, 10 mg/kg): 84.04 ng/g and 85.88 ng/g
Brain Concentrations, Group A, B, C ([1]; single PO dose 10 mg/kg (Group 1), 5 hr, 10 mg/kg): 75.21 ng/g and 71.22 ng/g
Brain Concentrations, Group A, B, C ([1]; single PO dose 50 mg/kg (Group 2), 0.5 hr, 50 mg/kg): 3190.42 ng/g and 5089.32 ng/g
Brain Concentrations, Group A, B, C ([1]; single PO dose 50 mg/kg (Group 2), 1 hr, 50 mg/kg): 936.29 ng/g and 482.22 ng/g
Brain Concentrations, Group A, B, C ([1]; single PO dose 50 mg/kg (Group 2), 2 hr, 50 mg/kg): 530.41 ng/g and 684.97 ng/g
GI50 (SKOV-3 (Ovarian)): 0.00975 µM
IC50 (isolated Src): 46 µM
percent activity of isolated kinase relative to control (Pyk2(h)): 97%
percent activity of isolated kinase relative to control (FGFR2(h)): 94%
